From patent US20090004726A1, “Inhibitor Tolerant Saccharomyces Cerevisiae Strain” (The United States of America, as represented by the …, priority 2007, published 2009)

Assays:
[1] = tested on: furfural reduction activity of Y-50049 whole cell extracts; experiment: Whole cell lysate enzyme assay after inhibitor induction (absorbance at 340 nm); assay type: biochemical, Saccharomyces cerevisiae; settings: induction with 30 mM inhibitor for 3 h; 10 mM furfural substrate; 100 μM NADPH
[2] = tested on: Saccharomyces cerevisiae NRRL Y-12632; experiment: Dose-dependent response of ethanologenic yeast to HMF (cell growth, OD600)
Procedure: A loopful of cells of each strain from the synthetic medium agar plate was transferred into a synthetic broth and incubated at 30° C. with agitation and maintained in the broth prior to inoculum preparation. Cells were harvested by centrifugation 8-15 hours after incubation and suspended in a fresh synthetic broth serving as the inoculum source. The initial OD at 620 nm of the inoculated medium for each culture was adjusted and recorded. Each strain was grown in a 15-ml test tube containing 3 ml of synthetic broth amended with inhibitory compounds in an incubator at 30° C. with agitation at 220 rpm under micro-oxic conditions. Cell growth was monitored by measuring optical absorbance at 620 nm using a spectrophotometer and samples were taken periodically.
For inhibitor application, cultures were supplemented with HMF at a series of final concentrations of 0, 10, 30, 60, and 120 mM, or combined inhibitors of furfural and HMF each at 12 mM, respectively. A non inhibitor treated culture served as a control. Cultures were monitored for cell growth at OD600 and samples were taken hourly for the first 16 hours and proper intervals afterward till the completion of the fermentation. Cell free supernatant was taken for metabolic profiling analysis using HPLC. […] Duplicated experiments were carried out for all treatments.

Structure (SMILES)	induced furfural reduction activity coupled with cofactor NADPH [1]	cell growth ([2]; HMF at 120 mM)	cell growth ([2]; HMF at 10, 30 and 60 mM, compared with control)	lethal dose (cells completely repressed, no biological activity or HMF transformation till 128 hours) ([2]; synthetic medium, 30° C.)
O=Cc1ccco1 [furfural]	strongest activities	–	–	–
O=Cc1ccc(CO)o1 [HMF, 5-hydroxymethylfurfural]	ranked the least	no cell growth was observed	delayed	120 mM
